Test results reported in article PMC6718988, “Bioactivity and Bactericidal Mechanism of Histidine-Rich β-Hairpin Peptide Against Gram-Negative Bacteria” (International Journal of Molecular Sciences, 2019).
Values after ≈ are worked out from the molar mass of the structure shown. Where a SMILES comes first, the peptide text is derived from it. [ ]: non-standard residue; d: D form.

How the values were obtained:
[1] = RP-HPLC retention time as measure of hydrophobicity; format: physicochemical; conditions: analytical Kromasil C18 column 4.6 mm × 250 mm, 5.0 μm, acetonitrile, flow 1.0 mL/min, used as measure of hydrophobicity
Method: The hydrophobicities of the peptides in solution were reliably mirrored by their high-performance liquid chromatography (HPLC)retention times. The retention times for peptide HI2, HW2, HV2, HF2, and PG-1 were 11.13, 10.55, 12.20, 18.06 and 12.56 min, respectively, indicating the following hydrophobic order: HF2 > PG-1 > HV2 > HI2 > HW2(Table 1).
The designed peptides were synthesized and purified by GL Biochem (Shanghai, China). Acetonitrile was used on an analytical Kromasil C18 column (4.6 mm × 250 mm, 5.0 μm, LC 3000, Beijing, China), and the purity of the peptides was determined to be greater than 95% via reversed-phase high-performance liquid chromatography (RP-HPLC) with a flow rate of 1.0 mL/min. The experimental molecular weights of the peptides were evaluated via ESI-MS analysis, and these values were very close to the calculated masses. Next, the peptides were dissolved in deionized water at a concentration of 2.56 mM, and the peptide solutions were stored at −20 °C.

E. coli ATCC25922 = test: microbe, parasite or virus in culture; conditions: ATCC25922, 24 h
Method: (§1) The minimum inhibitory concentration (MIC) was measured using a broth microdilution method to determine the in vitro antimicrobial activity of the peptides. Bacteria were inoculated into MHB and incubated overnight at 37 °C until the bacteria were in log phase growth. Next, we corrected the bacterial concentration to approximately 1 × 10^5 CFU/mL using MHB. The peptides were added to 96-well plates containing 0.01% acetic acid and 0.2% bovine serum albumin at final concentrations ranging from 0.25 to 128 μM. After incubation at 37 °C for 24 h, the absorbance was measured at 492 nm using a microplate reader (Tecan GENios F129004, Tecan, Austria). Broth containing microbes and […] were used as positive and negative controls, respectively. The lowest peptide concentration with no increase in absorbance compared to that of the negative control was defined as the MIC. The experiments were independently performed three times.

E. coli K88 = test: microbe, parasite or virus in culture; conditions: E. coli K88; MHB, about 1 × 10^5 CFU/mL, 37 °C, 24 h; three independent experiments
Method: as §1

E. coli K99 = test: microbe, parasite or virus in culture; conditions: E. coli K99; MHB, about 1 × 10^5 CFU/mL, 37 °C, 24 h; three independent experiments
Method: as §1

E. coli UB1005 = test: microbe, parasite or virus in culture; conditions: UB1005, 24 h
Method: as §1

P. aeruginosa ATCC27853 = test: microbe, parasite or virus in culture; conditions: ATCC27853, 24 h
Method: as §1

S. aureus ATCC29213 = test: microbe, parasite or virus in culture; conditions: ATCC29213, 24 h
Method: as §1

S. epidermidis ATCC12228 = test: microbe, parasite or virus in culture; conditions: ATCC12228, 24 h
Method: as §1

S. pullorum C7913 = test: microbe, parasite or virus in culture; conditions: C7913, 24 h
Method: as §1

[2] = tested on: methicillin-resistant S. aureus ATCC43300; test: microbe, parasite or virus in culture; conditions: ATCC43300, 24 h
Method: as §1

[3] = tested on: TNF-α production in RAW264.7 cells; test: Inhibition of endotoxin-induced inflammation (LPS-stimulated TNF-α production); format: cell-based, murine; conditions: 32 μM peptide, 100 ng/mL LPS, 18 h, 37 °C, ELISA
Method: TNF-α production by the RAW264.7 cells was stimulated with LPS to evaluate the LPS neutralization characteristics of the peptides. Briefly, (1.0–2.0) × 10^5 RAW264.7 cells were plated in 96-well plates and stimulated with LPS (100 ng/mL) for 18 h at 37 °C in the absence or presence of peptides (2–64 μM). The negative and positive controls were untreated cells and cells treated with LPS alone. The supernatant was used to evaluate the endotoxin neutralizing ability of the antimicrobial peptides by analyzing the TNF-α production using […] ELISA (Boster, Wuhan, China).

CC(C)[C@H](NC(=O)CNC(=O)[C@H]1CCCN1C(=O)[C@@H](NC(=O)[C@H](Cc1c[nH]cn1)NC(=O)[C@@H](NC(=O)[C@H](Cc1c[nH]cn1)NC(=O)[C@@H](NC(=O)[C@H](CCCNC(=N)N)NC(=O)[C@@H](N)CCCNC(=N)N)C(C)C)C(C)C)C(C)C)C(=O)N[C@@H](Cc1c[nH]cn1)C(=O)N[C@H](C(=O)N[C@@H](Cc1c[nH]cn1)C(=O)N[C@H](C(=O)N[C@@H](CCCNC(=N)N)C(=O)N[C@@H](CCCNC(=N)N)C(N)=O)C(C)C)C(C)C [HV2] (H-RRVHVHV[dP]GVHVHVRR-NH2; N-terminus assumed)
Retention Time [1]: 12.20 min
MIC (E. coli ATCC25922): 8 µM (≈ 15.5 µg/mL)
MIC (E. coli K88): 4 µM (≈ 7.76 µg/mL)
MIC (E. coli K99): 8 µM (≈ 15.5 µg/mL)
MIC (E. coli UB1005): 8 µM (≈ 15.5 µg/mL)
MIC (P. aeruginosa ATCC27853): 8 µM (≈ 15.5 µg/mL)
MIC (S. aureus ATCC29213): >128 µM
MIC (S. epidermidis ATCC12228): >128 µM
MIC (S. pullorum C7913): 8 µM (≈ 15.5 µg/mL)
MIC [2]: >128 µM
neutralizing activity against LPS (TNF-α level) [3]: ~100%
